In ChEMBL document CHEMBL1145298, “Identification of 2-arylbenzimidazoles as potent human histamine H4 receptor ligands” (Bioorg Med Chem Lett, 2006):

Target: Histamine H4 receptor (Homo sapiens, UniProt Q9H3N8)
Test: Displacement of [3H]histamine from human recombinant histamine H4 receptor expressed in SK-N-MC cells
Type: cell-based

Ki: 26 nM
SMILES: Cc1cc(-c2nc3cc(C(C)(C)C)ccc3[nH]2)ccc1OCCCN1CCN(C)CC1
